Measured values from patent US20170000749A1, “Methods for Treating Cognitive Disorders Using Inhibitors of Histone Deacetylase” (Forum Pharmaceuticals, Inc., priority 2008, published 2017).

target: one or more of HDAC-1, HDAC-2, HDAC-3, HDAC-4, HDAC-5, HDAC-6, HDAC-7, HDAC-8, HDAC-9, HDAC-10 and HDAC-11; experiment: Inhibition of Histone Deacetylase Enzymatic Activity (Boc-Lys(Ac)-AMC substrate, Fluor-de-Lys developer); assay type: biochemical; conditions: Table 8; read-out: HDAC Inhibition (IC50 μM) HDAC Enzyme
Method: The following protocol is used to assay the compounds of the disclosure.
The mixture is pre-incubated for 5 minutes at room temperature. The reaction is started by bringing the temperature to 37° C. and adding 16 μl substrate. Total reaction volume is 50 μl.
In the Tables 8, 9 and 10, A≦0.05 μM; 0.05 μM<B≦0.1 μM; 0.1 μM<C≦1 μM; and 1 μM<D≦10 μM.

`O=C(NO)c1ccc(C2=Nc3ccccc3Sc3ccccc32)cc1` [(Z)-4-(dibenzo[b,f][1,4]thiazepin-11-yl)-N-hydroxybenzamide] and `O=C(NO)c1ccc(C2=Nc3ccccc3N(CCN3CCOCC3)c3ccccc32)cc1` [(Z)-N-hydroxy-4-(5-(2-morpholinoethyl)-5H-dibenzo[b,e][1,4]diazepin-11-yl)benzamide] fall in the same range of IC50: 0.1 to 1 µM for the first, 0.1 to 1 µM for the second.

`CN(O)C(=O)c1ccc(C2=Nc3ccccc3N(C3CC3)c3ccccc32)cc1` [(Z)-4-(5-cyclopropyl-5H-dibenzo[b,e][1,4]diazepin-11-yl)-N-hydroxy-N-methylbenzamide] and `O=C(NO)c1ccc(C2=Nc3ccccc3N(CC3CC3)c3ncccc32)cc1` [(Z)-4-(11-(cyclopropylmethyl)-11H-benzo[b]pyrido[2,3-e][1,4]diazepin-5-yl)-N-hydroxybenzamide] fall in the same range of IC50: 1 to 10 µM for the first, 1 to 10 µM for the second.

`CN1CCN(C2=Nc3cc(C(=O)NO)ccc3Oc3ccccc32)CC1` and `O=C(NO)c1ccc2c(c1)N=C(c1ccncc1)c1ccccc1O2` [(Z)-N-hydroxy-11-(pyridin-4-yl)dibenzo[b,f][1,4]oxazepine-8-carboxamide] fall in the same range of IC50: 0.1 to 1 µM for the first, 0.1 to 1 µM for the second.

same assay, conditions: Table 10; read-out: HDAC Inhibition (IC50 μM) HDAC Enzyme

Compared with `O=CN(O)CCCCCCN1C(=O)c2ccccc2Oc2ccccc21` [N-hydroxy-N-(6-(11-oxodibenzo[b,f][1,4]oxazepin-10(11H)-yl)hexyl)formamide], `O=C(NO)c1cnc(N2C[C@@H]3C[C@]3(c3ccc(Cl)c(Cl)c3)C2)nc1` [2-((1S,5R)-1-(3,4-dichlorophenyl)-3-azabicyclo[3.1.0]hexan-3-yl)-N-hydroxypyrimidine-5-carboxamide] is higher in IC50: under 0.05 µM for the first, 0.1 to 1 µM for the second. The first is the more potent here.

First: O=C(NO)c1ccc(CNC(c2ccccc2)c2ccccc2)cc1 [4-((benzhydrylamino)methyl)-N-hydroxybenzamide]
Second: O=C(NO)c1ccc(CN(c2ccccc2)c2ccccc2)cc1 [4-((diphenylamino)methyl)-N-hydroxybenzamide]
The IC50 of the first is lower: under 0.05 µM for the first, 0.1 to 1 µM for the second. The first is the more potent here.

`O=C(C=C1c2ccccc2C=Cc2ccccc21)NO` and `O=C(NO)c1ccc(Cn2c3c(c4ccccc42)CCCCCC3)cc1` [4-((6,7,8,9,10,11-hexahydro-5H-cycloocta[b]indol-5-yl)methyl)-N-hydroxybenzamide] fall in the same range of IC50: 0.1 to 1 µM for the first, 0.1 to 1 µM for the second.

Compared with `O=C(NO)c1ccc(Cn2c(-c3ccccc3)cc3ccccc32)cc1` [N-hydroxy-4-((2-phenyl-1H-indol-1-yl)methyl)benzamide], `O=C(NO)c1cccc(CN(c2ccccc2)c2ccccc2)c1` [3-((diphenylamino)methyl)-N-hydroxybenzamide] is higher in IC50: 0.1 to 1 µM for the first, 1 to 10 µM for the second.

First: O=C(NO)c1ccc(CN2Cc3ccccc3Oc3ccccc32)cc1 [4-(dibenzo[b,f][1,4]oxazepin-10(11H)-ylmethyl)-N-hydroxybenzamide]
Second: O=C(NO)c1cnc(N2C[C@H]3C[C@@]3(c3ccc(C(F)(F)F)cc3)C2)nc1
The IC50 of the first is lower: under 0.05 µM for the first, 0.1 to 1 µM for the second.

`O=C(NO)c1ccc(COC2c3ccccc3CCc3ccccc32)cc1` and `O=C(NO)c1cccc(CN2c3ccccc3Sc3ccccc32)c1` [3-((10H-phenothiazin-10-yl)methyl)-N-hydroxybenzamide] fall in the same range of IC50: 0.1 to 1 µM for the first, 0.1 to 1 µM for the second.

First: O=C(NO)c1ccc(OCCN2C(=O)c3ccccc3Oc3ccccc32)cc1F
Second: O=C(CCCN1C(=O)c2cccnc2N(C2CC2)c2ccccc21)NO [4-(11-cyclopropyl-5-oxo-5H-benzo[b]pyrido[2,3-e][1,4]diazepin-6(11H)-yl)-N-hydroxybutanamide]
The IC50 of the first is lower: 0.05 to 0.1 µM for the first, 1 to 10 µM for the second.

Compared with `O=C(NO)c1cnc(N2CCC[C@H]2c2nc3ccccc3[nH]2)nc1` [(S)-2-(2-(1H-benzo[d]imidazol-2-yl)pyrrolidin-1-yl)-N-hydroxypyrimidine-5-carboxamide], `O=C(NO)c1ccc(CN2c3ccccc3CCc3ccccc32)cc1` [4-((10,11-dihydro-5H-dibenzo[b,f]azepin-5-yl)methyl)-N-hydroxybenzamide] is lower in IC50: 0.1 to 1 µM for the first, under 0.05 µM for the second. The second is the more potent here.

Compared with `O=C(NO)c1cccc(CNC2c3ccccc3CCc3ccccc32)c1`, `O=C(NO)c1cc2c(cn1)[nH]c1ccccc12` [N-hydroxy-9H-pyrido[3,4-b]indole-3-carboxamide] is higher in IC50: 0.1 to 1 µM for the first, 1 to 10 µM for the second.

Compared with `O=C1CN=C(c2ccc(C(=O)NO)cc2)c2cc(Br)sc2N1` [(Z)-4-(7-bromo-2-oxo-2,3-dihydro-1H-thieno[2,3-e][1,4]diazepin-5-yl)-N-hydroxybenzamide], `O=C(NO)c1ccc(OCCN2C(=O)c3ccccc3Oc3ccccc32)cc1Cl` is higher in IC50: 0.1 to 1 µM for the first, 1 to 10 µM for the second.

First: O=C(NO)c1cnc(N2C[C@H]3C[C@@]3(c3ccc(Cl)c(Cl)c3)C2)nc1 [2-((1R,5S)-1-(3,4-dichlorophenyl)-3-azabicyclo[3.1.0]hexan-3-yl)-N-hydroxypyrimidine-5-carboxamide]
Second: O=C(C=C1c2ccccc2CCc2ccccc21)NO
The IC50 of the first is lower: 0.1 to 1 µM for the first, 1 to 10 µM for the second. The first is the more potent here.

First: CN1CCc2[nH]c3ccc(C(=O)NO)cc3c2C1 [N-hydroxy-2-methyl-2,3,4,5-tetrahydro-1H-pyrido[4,3-b]indole-8-carboxamide]
Second: O=C(NO)c1cn2c(n1)sc1ccccc12
The IC50 of the first is higher: 1 to 10 µM for the first, 0.1 to 1 µM for the second.

`O=C(NO)c1cccc(CN2c3ccccc3Oc3ccccc32)c1` [3-((10H-phenoxazin-10-yl)methyl)-N-hydroxybenzamide] and `O=C(CN1c2ccccc2C=Cc2ccccc21)NO` [(Z)-2-(5H-dibenzo[b,f]azepin-5-yl)-N-hydroxyacetamide] fall in the same range of IC50: 1 to 10 µM for the first, 1 to 10 µM for the second.

`O=C(NO)c1cccc(COC2c3ccccc3CCc3ccccc32)c1` and `O=C(NO)c1ccc(CNC2c3ccccc3COc3ccccc32)cc1` (stereo not drawn) [4-((6,11-dihydrodibenzo[b,e]oxepin-11-ylamino)methyl)-N-hydroxybenzamide] fall in the same range of IC50: 0.1 to 1 µM for the first, 0.1 to 1 µM for the second.

First: O=C(NO)c1cnc(NC2c3ccccc3CCc3ccccc32)nc1
Second: O=C(NO)c1cnc(N2C[C@H]3C[C@@]3(c3ccccc3)C2)nc1 [N-hydroxy-2-((1R,5S)-1-phenyl-3-azabicyclo[3.1.0]hexan-3-yl)pyrimidine-5-carboxamide]
The IC50 of the first is lower: under 0.05 µM for the first, 0.1 to 1 µM for the second. The first is the more potent here.

`O=C(NO)c1cnc(N2C[C@H]3C[C@@]3(c3cccc(C(F)(F)F)c3)C2)nc1` and “(Z)-N-(5H-dibenzo[b,f]azepin-5-yl)methyl)benzyl)-N-hydroxyformamide” fall in the same range of IC50: 0.1 to 1 µM for the first, 0.1 to 1 µM for the second.

First: O=C(NO)c1cnc(NC(c2ccc(F)cc2)c2ccc(F)cc2)nc1 [2-(bis(4-fluorophenyl)methylamino)-N-hydroxypyrimidine-5-carboxamide]
Second: O=C(NO)c1cccc(CN2c3ccccc3C=Cc3ccccc32)c1 [(Z)-3-((5H-dibenzo[b,f]azepin-5-yl)methyl)-N-hydroxybenzamide]
The IC50 of the first is lower: under 0.05 µM for the first, 0.1 to 1 µM for the second.

tested on: HDAC activity in primary mouse cortical cultures; experiment: Whole-Cell Histone Deacetylase (HDAC) Inhibition Assay in Primary Mouse Cortical Cultures; assay type: cell-based; conditions: whole-cell (WC), mouse cortical neurons; Table 8; read-out: HDAC Inhibition (IC50 μM) WC mouse cortical neurons
Method: Primary neocortical cultures are established through the dissection of the neocortex from E17 embryos harvested from time-pregnant Balb/C mice. Following dissection, the neocortical tissue specimens undergo digestion by incubation at 37° C. for 10 minutes in dissection medium (1×HBSS/10 mM HEPES/1 mM Sodium Pyruvate) supplemented with (0.25%) Trypsin and (0.1%) DNase I. Digested tissue is washed and resuspended in plating medium (NeuroBasal/10% HS/0.5 mM L-Glutamine (Invitrogen Corporation)) for trituration. Additional plating medium is added, and the contents are passed over a 70 um cell-strainer. The cell-density is quantified using a hemacytometer, and dilutions are made to allow for the plating of 50000 cells/well/100 uL in 96-well PDL-coated plates. Plates are incubated for 4-5 hours in 37° C./5% CO2-incubator, after which time the entire volume is exchanged to feeding medium (NeuroBasal/2% B-27 Serum-free supplement/0.5 mM L-Glutamine/1% Penicillin-Streptomycin (Invitrogen Corporation)). The cultures undergo two 50% fresh feeding medium exchanges at 3 days in vitro (DIV3), and again at DIV7.
Compounds for testing are resuspended in dimethyl sulphoxide (DMSO), and further diluted in DMSO for a ten-point dose-response curve, with appropriate controls. Each master plate is assayed in triplicate. […] Three DIV9 culture plates are leveled to 50 uL/well, onto which each has overlaid 50 uL/well of the diluted daughter plate. The plates are returned to the 37° C./5% CO2-incubator for 16-18 hours.
The next step of the assay involves the exposure of a HDAC colorimetric substrate, comprising an acetylated lysine side chain, to the compound-treated neuronal cultures. Based on the ability of the compound to inhibit HDAC activity in the neuronal cultures, the substrate is deacetylated by HDACs, and subsequently sensitized. […] Compound-incubated culture plates are again leveled to 50 uL/well and 2 uL/well of 7.5 mM BOC-Lys (Ac)-AMC substrate is added and thoroughly mixed. Plates are returned to the 37° C./5% CO2-incubator for 1 hour.
The final addition to the culture plates entails treatment with a Fluor de Lys™-based developer (BIOMOL Research Laboratories, Inc.) to produce a fluorophore, which is analyzed using a spectrophotometer. The developer solution (1×Fluor de Lys™/1% NP-40/1 uM TSA in HDAC Buffer Solution) is prepared, and 50 uL/well is added to each of the wells of the culture plates. […] The plates are returned to the 37° C./5% CO2-incubator for 10-15 minutes, after which time, they are removed and set in the dark at room temperature for 5-10 minutes.
Primary neocortical cultures were established through the dissection of the neocortex from E17 embryos harvested from time-pregnant Balb/C mice. Following dissection, the neocortical tissue specimens underwent digestion by incubation at 37° C. for 10 minutes in dissection medium (1×HBSS/10 mM HEPES/1 mM Sodium Pyruvate) supplemented with (0.25%) Trypsin and (0.1%) DNase I. Digested tissue was washed and resuspended in plating medium (NeuroBasal/10% HS/0.5 mM L-Glutamine (Invitrogen Corporation)) for trituration. Additional plating medium was added, and the contents passed over a 70 um cell-strainer. The cell-density was quantified using a hemacytometer, and dilutions made to allow for the plating of 50000 cells/well/100 uL in 96-well PDL-coated plates. Plates were incubated for 4-5 hours in 37° C./5% CO2-incubator, after which time the entire volume was exchanged to feeding medium (NeuroBasal/2% B-27 Serum-free supplement/0.5 mM L-Glutamine/l % Penicillin-Streptomycin (Invitrogen Corporation)). The cultures underwent two 50% fresh feeding medium exchanges at 3 days in vitro (DIV3), and again at DIV7.
Compounds for testing were resuspended in dimethyl sulphoxide (DMSO), and further diluted in DMSO for a ten-point dose-response curve, with appropriate controls. Each master plate was assayed in triplicate.

Work on `CN(C)CCOc1ccc2c(c1)C(c1ccc(C(=O)NO)cc1)=Nc1ccccc1O2` [(Z)-4-(2-(2-(dimethylamino)ethoxy)dibenzo[b,f][1,4]oxazepin-11-yl)-N-hydroxybenzamide] yielded an IC50 of over 15 µM.

same assay, conditions: whole-cell (WC), mouse cortical neurons; Table 9; read-out: HDAC Inhibition (IC50 μM) WC mouse cortical neurons

With `O=C(NO)c1cnc(N2C[C@@H]3C[C@H]2CN3C(=O)C2CCCCC2)nc1` [2-((1S,4S)-5-(cyclohexanecarbonyl)-2,5-diazabicyclo[2.2.1]heptan-2-yl)-N-hydroxypyrimidine-5-carboxamide] the IC50 was 1 to 5 µM.
